Values of other authors, collected in patent US7251609B1, “Method for conducting clinical trials over the internet” (The Trustees of Boston University, priority 1999, dated 2007).

System: patients with knee OA

**Q.** What does the source list for Cl.N[C@H]1C(O)O[C@H](CO)[C@@H](O)[C@@H]1O (stereo partly drawn) [glucosamine hydrochloride]?
**A.** major adverse events (94 patients with knee OA): No major adverse events; rate of minor adverse symptoms (94 patients with knee OA, identical rate in glucosamine and placebo groups): 12%; efficacy (study of Houpt et al, knee OA): only modest efficacy
